“Also recorded” adds a separate entry of the source. Where two headings read alike, the source gives them in different places.
Legend:
[1] = test system: human AVM-NKT cells (human CD56+ cells); assay: Humanized mice orally dosed with DSP (Example 8); assay type: in vivo, mouse; settings: oral HED 18-45 mg/kg, 24-48 hours later
Description: BRGSF humanized mice on a Balb/c background from Genoway generated by transplanting human umbilical cord blood CD34+ stem cells into irradiated mice that lack mouse B and T lymphocytes and NK cells but have a functional mouse complement system are orally dosed with HED 18-45 mg/kg DSP.
NCG mice are humanized by adoptive transfer using human umbilical cord blood-derived CD34+ stem cells, following myeloablation treatment. NCG mice from 4 donors (n=2 per donor) are orally dosed with HED 18-45 mg/kg DSP.
huNOG EXL from Taconic have an average of 54% of CD45 cells positive for human CD45. Six huNOG EXL humanized immune system mice from 3 donors (n=2 per donor) are orally dosed with HED 18-45 mg/kg DSP.

[2] = test system: AVM-NKT cells (CD3highCD49b+); assay type: in vivo, mouse; settings: for induction of AVM-NKT cells by comparators: naïve mice, standard Cy/Flu chemotherapy or methylprednisone
Excerpt: Mice were anesthetized with isoflurane gas.

[3] = test system: mouse whole blood and splenocytes; assay: Ex vivo/in vitro dexamethasone concentration-response curve
A20 B cell lymphoma = settings: 18 mg/kg HED
Description: FIG. 10B. […] Mice were inoculated with A20 lymphoma 2×10^6 cells in 100 μL of PBS mixed with 100 μL of chilled Matrigel into their flank. Three, 24 and 48 hours later mice were euthanized and tumors, blood, bone marrow and thymus were taken and made into single cell suspensions for flow cytometry detection of live A20 cells.

CD56+γδTCR+iTCR+ cells = assay: AVM0703 R/R NHL clinical trial, whole blood flow cytometry; assay type: in vivo, human; settings: listed as DP
Description: FIG. 15. 101-001 size (FSC) and complexity (SSC) scattergram of AVM_NKT cells. […] Blood was stained with panel antibodies based for 15 minutes in the dark at Room Temperature. RBC lysis was performed by addition of 1 mL of 1×BD FACS Lysing Solution (BD Bioscience), diluted with MilliQ water, for 10 minutes in the dark at Room Temperature. Samples were washed with 2 mL 1×DPBS CMF (Gibco) and resuspended in 300 μL of 1×DPBS CMF before 5 μL of 7AAD (Biolegend) was added to each sample for live/dead cell determination and incubated for 5 minutes in the dark at Room Temperature. 250 μL of sample were taken up for acquisition on Macsquant 16 Flow Cytometer (Miltenyi, Serial #40150). Live white blood cells were gated for CD56+ cells co-expressing gamma delta TCR and the invariant TCR and labelled red in the forward versus side scattergram. Red-labelled cells fall within the forward versus side scattergrams where large granular cells such as neutrophils and large granular lymphocytes are known to fall.
For characterisation of the induced/mobilized population of NKT-like cells (AVM-NKT) in humans, whole blood from human subjects was drawn in K2 EDTA Vacutainer tube (367862, BD Biosciences, NJ) and shipped to AVM Biotechnology at room temperature. 100 μl of whole blood was stained with the following antibodies: CD45 AF700 (2D1), CD16 APC (3G8), INKT PECy7 (6B11), CD8 PE (SK1), CD14 FITC (M5E2), CD56 BV650 (5.1H11), γδTCR BV510 (B1), CD19 BV421 (HIB19), NKp44 APC (P44-8) (all from Biolegend, San Diego, CA) and CD3 APCVio770 (BW264/56), (Miltenyi Biotec, San Jose, CA), 7-AAD, (Biolegend, San Diego CA) was included to distinguish the live and dead cells.

R/R NHL = assay: AVM0703 R/R NHL clinical trial, clinical and PET/CT response, survival; assay type: in vivo, human; settings: patient 108-004, 12 mg/kg; listed as DP
A20 cells = A20 cells treated with high dose dexamethasone in vitro; assay type: cell-based, mouse; settings: 72 hours after high dose dexamethasone treatment in vitro
[4] = test system: peripheral blood lymphocytes; assay: Lymphodepletion study in naïve mice (complete blood count, flow cytometry)
Description: For initial lymphodepletion studies, naïve C57Bl/6 mice were treated with 18 mg/kg HED DP by oral gavage. Male C57BL/6 mice were obtained from Taconic Bioscience (Germantown, NY) and acclimated to laboratory conditions for at least one week. […] Each dosed timepoint group was accompanied by a placebo group of the same age and condition according to Table 3. […] When mice reached study timepoint, they were euthanized as follows. Mice were anesthetized with isoflurane gas. Once anesthetized, blood was drawn via cardiac puncture and place immediately in heparin-lined microtubes. 10 mL of 5 U/mL of Heparin/PBS was used for infused by slow push for retrograde perfusion via the abdominal aorta to flush out all remaining blood from the vasculature. Subsequently, 250 μL of blood was transferred to a lavender-topped EDTA-lined microtube and transported to by Lynette Brown at Flow Contract Site Labs (Bothell, WA) for analysis by flow cytometry. The remaining blood was sent to Phoenix Labs (Mukilteo, WA) for Complete Blood Counts and Clinical Chemistries

[5] = in vivo; cited from earlier work

In the case of `C[C@@H]1C[C@H]2[C@@H]3CCC4=CC(=O)C=C[C@]4(C)[C@@]3(F)[C@@H](O)C[C@]2(C)[C@@]1(O)C(=O)COP(=O)(O)O` [DSP, Dexamethasone sodium phosphate], the “cell population corresponding to AVM-NKT cells” value ([1]; BRGSF humanized mice) is reported as “can be observed”, the “cells corresponding to AVM-NKT cells, % of total splenocytes” value ([1]; HuCD34-NCG mice) is reported as 0.2-3% and the “cells corresponding to AVM-NKT cells, % of total splenocytes” value ([1]; huNOG EXL mice) is reported as 0.2-3%.

With `C[C@@H]1C[C@H]2[C@@H]3CCC4=CC(=O)C=C[C@]4(C)[C@@]3(F)[C@@H](O)C[C@]2(C)[C@@]1(O)C(=O)CO` [dexamethasone base] the “induction of AVM-NKT cells, dose escalation” value (shortened to “induction … dose escalation”) ([2]; 15 mg/kg HED) was “particularly robust production”, the “induction … dose escalation” value ([2]; 6+6 mg/kg HED: 6 mg/kg at time 0 and 6 mg/kg 24 hours later) was “particularly robust production” and the “induction … dose escalation” value ([2]; single dose between 6-12 mg/kg HED) was “can induce AVM-NKT cells”. For the same molecule, the “human equivalent dose giving an in vivo peak blood concentration of 100 uM” value [3] was ~2.8 mg/kg, the “response of RBCs” value ([3]; ex vivo, any concentration (data not shown)) was “no response” and the “concentration above which apoptosis decreases (biphasic curve)” value ([3]; isolated mouse splenocytes and whole blood, 6 hours incubation) was “above 100 uM”.

For `C[C@@H]1C[C@H]2[C@@H]3CCC4=CC(=O)C=C[C@]4(C)[C@@]3(F)[C@@H](O)C[C@]2(C)[C@@]1(O)C(=O)COP(=O)(O)O` [dexamethasone phosphate, Dexamethasone phosphate, reference compound], the “time of maximal ablation of A20 lymphoma implanted in the flank” value (A20 B cell lymphoma) was ≤ 3 h, the “time of maximal eradication of A20 metastasis to blood and thymus” value (A20 B cell lymphoma) was 24 h and the “time of maximal eradication of A20 metastasis to bone marrow” value (A20 B cell lymphoma) was 48 h. The “CD56+ γδTCR+ iTCR+ cells/uL” value (CD56+γδTCR+iTCR+ cells; patient 103-005, 9 mg/kg, 1 hour post-infusion) was 22 cells/uL, the “CD56+γδTCR+invTCR+ cells in blood” value (CD56+γδTCR+iTCR+ cells; patient 108-004, 12 mg/kg, one hour, 3 days or 14 days after infusion (pre-infusion 0.09%, 4.6 cells/uL)) was “no evidence” and the “objective beneficial response (PET/CT, clinical chemistries, CBCs or clinical symptoms)” value (R/R NHL) was “did not have a clinical response”.

In the case of `C[C@@H]1C[C@H]2[C@@H]3CCC4=CC(=O)C=C[C@]4(C)[C@@]3(F)[C@@H](O)C[C@]2(C)[C@@]1(O)C(=O)CO` [dexamethasone], the “time to induction of AVM-NKT cells in the spleen” value ([2]; normal mice, after dexamethasone dosing) is reported as ≤ 48 h, the “apoptosis of A20 cells” value (A20 cells) is reported as “about 30%” and the platelet numbers ([4]; 18 mg/kg HED DP, 18 mg/kg) is reported as “spared; also recorded: does not affect”. The “number of live hematopoietic stem cells” value ([4]; 18 mg/kg HED DP, 6 hours to 35 days, 18 mg/kg) was “spared or increased; also recorded: does not significantly alter”, the Basophils ([4]; high-dose dexamethasone) was “reduced only at the 6 hour time point” and the MSCs ([4]; high-dose dexamethasone) was “spared or increased”. The RBCs ([4]; high-dose dexamethasone) was “spared” and the eosinophils ([4]; high-dose dexamethasone) was “reduced only at the 24 and 48 hour time points”.

For `C[C@]12C=CC(=O)C=C1CC[C@@H]1[C@@H]2C(=O)C[C@@]2(C)[C@H]1CC[C@]2(O)C(=O)CO` [prednisone], the biologic half-life [5] is given as “about 20 hours”.

With cyclophosphamide/fludarabine [Cy/Flu] the “induction of AVM-NKT cells by comparators” value (“induction … by comparators” for short) [2] was “not induced”, the “induction … by comparators” value ([2]; listed as Cyclophosphamide/fludarabine) was “does not induce” and the “Total NKT cell numbers” value ([4]; 13 mg/kg HED cyclophosphamide and 0.8 mg/kg HED fludarabine, 48 hours) was “no such increase”.

For methylprednisone, the “induction … by comparators” value [2] was “not induced”.

From patent US20240358829A1, “Lymphocyte Population and Methods for Producing Same” (AVM Biotechnology, LLC, priority 2021, published 2024)
